The values below come from PubChem BioAssay AID256 (DTP/NCI, 2004).

For the test, the system named is CD2F1 mice, L1210 leukemia ip, survival T/C. As to the kind of experiment: NCI In Vivo Anticancer Drug Screen. Data for tumor model L1210 Leukemia (intraperitoneal) in CD2F1 (CDF1) mice. Conditions: higher = longer survival. In short, it runs like this:
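Mice carrying a transplanted tumor received test compound or vehicle alone. The value is the measurement in the treated group divided by that in the vehicle-treated control group.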

[1] abbreviates: endpoint: mean survival time, dose: 100.0 mg/kg/injection, schedule: Q01DX009 (ip), vehicle: saline with Tween-80.
Where [2] appears, read: endpoint: mean survival time, dose: 100.0 mg/kg/injection, schedule: Q04DX003 (ip), vehicle: saline with Tween-80.
[3] abbreviates: endpoint: mean survival time, dose: 200.0 mg/kg/injection, schedule: Q01DX009 (ip), vehicle: saline with Tween-80.
[4] abbreviates: endpoint: mean survival time, dose: 200.0 mg/kg/injection, schedule: Q04DX003 (ip), vehicle: saline with Tween-80.
Where [5] appears, read: endpoint: mean survival time, dose: 400.0 mg/kg/injection, schedule: Q01DX009 (ip), vehicle: saline with Tween-80.
Setting [6] is: endpoint: mean survival time, dose: 400.0 mg/kg/injection, schedule: Q04DX003 (ip), vehicle: saline with Tween-80.

Each structure is given as a SMILES string. Values joined by “and” are separate entries in the source; they are usually repeats but may differ in a detail not shown here. Equal values may be shown once. Toxic doses and inconclusive results are not listed.

With `Nc1ccnc(SCCCOc2ccccc2)n1`, the T/C was 104 % of control (endpoint: mean survival time, dose: 100.0 mg/kg/injection, schedule: Q04DX002 (ip), vehicle: saline with Tween-80); 101 % of control (endpoint: mean survival time, dose: 200.0 mg/kg/injection, schedule: Q04DX002 (ip), vehicle: saline with Tween-80); 97 % of control (endpoint: mean survival time, dose: 400.0 mg/kg/injection, schedule: Q04DX002 (ip), vehicle: saline with Tween-80).
With `CCOC(OCC)C(=O)OCC(=O)[C@]1(O)Cc2c(O)c3c(c(O)c2[C@@H](OC2CC(N)C(O)C(C)O2)C1)C(=O)c1c(OC)cccc1C3=O` (some centres not stated), the T/C was 104 % of control (endpoint: mean survival time, dose: 0.13 mg/kg/injection, schedule: Q01DX009 (ip), vehicle: saline); 118 % of control and 107 % of control (endpoint: mean survival time, dose: 0.25 mg/kg/injection, schedule: Q01DX009 (ip), vehicle: saline); 110 % of control (endpoint: mean survival time, dose: 0.5 mg/kg/injection, schedule: Q01DX009 (ip), vehicle: saline); 174 % of control (endpoint: mean survival time, dose: 1.0 mg/kg/injection, schedule: Q01DX009 (ip), vehicle: saline); 160 % of control (endpoint: mean survival time, dose: 2.0 mg/kg/injection, schedule: Q01DX009 (ip), vehicle: saline); 104 % of control (endpoint: mean survival time, dose: 4.0 mg/kg/injection, schedule: Q01DX009 (ip), vehicle: saline).
`CC[C@@]1(OC(=O)CN2CCNCC2)C(=O)OCc2c1cc1n(c2=O)Cc2cc3ccccc3nc2-1`: the T/C (endpoint: median survival time, dose: 6.25 mg/kg/injection, schedule: Q04DX002 (ip), vehicle: water) is 106 % of control; the T/C (endpoint: median survival time, dose: 12.5 mg/kg/injection, schedule: Q04DX002 (ip), vehicle: water) is 116 % of control; the T/C (endpoint: median survival time, dose: 50.0 mg/kg/injection, schedule: Q04DX002 (ip), vehicle: water) was 153 % of control and 170 % of control; the T/C (endpoint: median survival time, dose: 100.0 mg/kg/injection, schedule: Q04DX002 (ip), vehicle: water) was 268 % of control.
With `OC(c1ccccc1)C1(c2ccccc2)OCCO1` (configuration not stated), the T/C under setting [1] was 95 % of control; the T/C under setting [2] was 97 % of control; the T/C under setting [3] is 90 % of control; the T/C under setting [4] is 92 % of control; the T/C under setting [5] is 92 % of control; the T/C under setting [6] is 98 % of control.
Consider `CCCCCCCCCCCCN(CN1C(=O)c2ccccc2C1=O)CN1C(=O)c2ccccc2C1=O`, for which the T/C reads like this: under setting [1], 92 % of control; under setting [5], 86 % of control.
As to `COC1=C(N2CC2)C(=O)C(OC)=C(N2CC2)C1=O`, the T/C (endpoint: mean survival time, dose: 0.9 mg/kg/injection, schedule: Q01DX015 (ip), vehicle: saline) is 115 % of control; the T/C (endpoint: mean survival time, dose: 1.3 mg/kg/injection, schedule: Q01DX015 (ip), vehicle: saline) is 119 % of control; the T/C (endpoint: mean survival time, dose: 3.0 mg/kg/injection, schedule: Q01DX015 (ip), vehicle: saline) is 113 % of control.
In the case of `O=[N+]([O-])c1cc(F)ccc1O`, the T/C under setting [1] is 96 % of control.
Regarding `O=c1n(-c2ccccc2)c(=O)n2n1CC(c1ccccc1)=N2`, the T/C (endpoint: mean survival time, dose: 12.5 mg/kg/injection, schedule: Q01DX009 (ip), vehicle: other) was 97 % of control; the T/C (endpoint: mean survival time, dose: 25.0 mg/kg/injection, schedule: Q01DX009 (ip), vehicle: other) is 100 % of control; the T/C (endpoint: mean survival time, dose: 50.0 mg/kg/injection, schedule: Q01DX009 (ip), vehicle: other) was 97 % of control; the T/C (endpoint: mean survival time, dose: 100.0 mg/kg/injection, schedule: Q01DX009 (ip), vehicle: other) was 103 % of control; the T/C (endpoint: mean survival time, dose: 200.0 mg/kg/injection, schedule: Q01DX009 (ip), vehicle: other) was 96 % of control.
For the compound `CC(C)CC(NC(=O)C(O)C(N)Cc1ccccc1)C(=O)O` (configuration not stated), the T/C runs as follows: (endpoint: mean survival time, dose: 10.0 micrograms/kg/injection, schedule: Q01DX005 (oral), vehicle: saline) 96 % of control; (endpoint: mean survival time, dose: 100.0 micrograms/kg/injection, schedule: Q01DX005 (oral), vehicle: saline) 100 % of control; (endpoint: median survival time, dose: 10.0 micrograms/mouse/injection, schedule: Q01DX010 (oral), vehicle: saline) 97 % of control; (endpoint: median survival time, dose: 100.0 micrograms/mouse/injection, schedule: Q01DX010 (oral), vehicle: saline) 95 % of control.
On to `Cc1c2cnccc2c(C)c2c1c1ccccc1n2CCNCc1ccccc1`, for which the T/C is 105 % of control under setting [2] and 107 % of control under setting [4].
`Cn1cnc2cc(N)ccc21`: the T/C (endpoint: mean survival time, dose: 50.0 mg/kg/injection, schedule: Q01DX009 (ip), vehicle: saline) was 95 % of control; the T/C (endpoint: mean survival time, dose: 100.0 mg/kg/injection, schedule: Q01DX009 (ip), vehicle: saline) is 98 % of control; the T/C (endpoint: mean survival time, dose: 200.0 mg/kg/injection, schedule: Q01DX009 (ip), vehicle: saline) is 98 % of control.
Consider `CC(C)CNC1=CC(=O)c2ccccc2C1=O`, for which the T/C under setting [2] is 95 % of control, the T/C under setting [4] was 98 % of control and the T/C under setting [6] was 101 % of control.
Regarding `O=C1C=C(Cl)C(=O)N1c1cccc(Cl)c1`, the T/C (endpoint: mean survival time, dose: 6.25 mg/kg/injection, schedule: Q04DX003 (ip), vehicle: saline with Tween-80) was 104 % of control; the T/C (endpoint: mean survival time, dose: 12.5 mg/kg/injection, schedule: Q04DX003 (ip), vehicle: saline with Tween-80) is 95 % of control; the T/C (endpoint: mean survival time, dose: 25.0 mg/kg/injection, schedule: Q04DX003 (ip), vehicle: saline with Tween-80) was 95 % of control.
Turning to `CC1CC(C)(C)C(C[NH-])C1[NH-].[Cl][Pt+2][Cl]` (configuration not stated), the T/C is, setting by setting: (endpoint: mean survival time, dose: 3.12 mg/kg/injection, schedule: Q04DX003 (ip), vehicle: saline) 115 % of control; (endpoint: mean survival time, dose: 50.0 mg/kg/injection, schedule: Q04DX003 (ip), vehicle: saline) 261 % of control; (endpoint: mean survival time, dose: 100.0 mg/kg/injection, schedule: Q04DX003 (ip), vehicle: saline) 158 % of control and 211 % of control; (endpoint: mean survival time, dose: 200.0 mg/kg/injection, schedule: Q04DX003 (ip), vehicle: saline) 94 % of control.
For `COc1ccc(C(=O)N/N=C(\C)[C@]2(O)Cc3c(O)c4c(c(O)c3[C@@H](OC3CC(N)C(O)C(C)O3)C2)C(=O)c2c(OC)cccc2C4=O)cc1` (some centres not stated), the T/C is 103 % of control (endpoint: mean survival time, dose: 0.5 mg/kg/injection, schedule: Q01DX009 (ip), vehicle: water); 112 % of control (endpoint: mean survival time, dose: 1.0 mg/kg/injection, schedule: Q01DX009 (ip), vehicle: water); 118 % of control (endpoint: mean survival time, dose: 2.0 mg/kg/injection, schedule: Q01DX009 (ip), vehicle: water); 121 % of control (endpoint: mean survival time, dose: 4.0 mg/kg/injection, schedule: Q01DX009 (ip), vehicle: water).
As to `CCCCCCCCCC(=O)CCCCCCC`, the T/C runs as follows: (endpoint: mean survival time, dose: 100.0 mg/kg/injection, schedule: Q04DX003 (ip), vehicle: other) 105 % of control; (endpoint: mean survival time, dose: 200.0 mg/kg/injection, schedule: Q04DX003 (ip), vehicle: other) 92 % of control; (endpoint: mean survival time, dose: 400.0 mg/kg/injection, schedule: Q04DX003 (ip), vehicle: other) 107 % of control.
As for `COc1cc(CC(C)N)ccc1O` (configuration not stated), the T/C under setting [2] is 105 % of control, the T/C under setting [4] is 100 % of control and the T/C under setting [6] is 89 % of control.
The like results for `Cc1c(N=[N+]=[N-])c(NS(=O)(=O)c2ccccc2)c(C)c(N=[N+]=[N-])c1NS(=O)(=O)c1ccccc1` were, in that order, 96 % of control, 93 % of control and 93 % of control.
Take `O.O.[NH-]C1CCCCC1[NH-].[Pt+2]` (configuration not stated): the T/C (endpoint: mean survival time, dose: 0.31 mg/kg/injection, schedule: Q01DX009 (ip), vehicle: dextrose) was 109 % of control; the T/C (endpoint: mean survival time, dose: 0.63 mg/kg/injection, schedule: Q04DX003 (ip), vehicle: water) is 124 % of control; the T/C (endpoint: mean survival time, dose: 1.25 mg/kg/injection, schedule: Q01DX009 (ip), vehicle: dextrose) was 124 % of control.
As for `CC/C=C(\CC(=O)OCC)C(=O)OCC`, the T/C runs as follows: under setting [2], 102 % of control; under setting [4], 106 % of control; under setting [6], 101 % of control.
As for `CCCCC1CCCCCCc2[nH]c(/C=C3\N=C(c4ccc[nH]4)C=C3OC)cc21` (configuration not stated), the T/C by setting is: (endpoint: mean survival time, dose: 0.12 mg/kg/injection, schedule: Q01DX009 (ip), vehicle: saline with Tween-80) 103 % of control; (endpoint: mean survival time, dose: 0.25 mg/kg/injection, schedule: Q01DX009 (ip), vehicle: saline with Tween-80) 107 % of control; (endpoint: mean survival time, dose: 0.5 mg/kg/injection, schedule: Q01DX009 (ip), vehicle: saline with Tween-80) 116 % of control; (endpoint: mean survival time, dose: 1.0 mg/kg/injection, schedule: Q01DX009 (ip), vehicle: saline with Tween-80) 105 % of control; (endpoint: mean survival time, dose: 2.0 mg/kg/injection, schedule: Q01DX009 (ip), vehicle: saline with Tween-80) 106 % of control.
With `Cc1cccc(Cl)c1C#N`, the T/C by setting is: (endpoint: mean survival time, dose: 100.0 mg/kg/injection, schedule: Q01DX001 (ip), vehicle: saline with Tween-80) 104 % of control; under setting [1], 94 % of control; under setting [2], 107 % of control; (endpoint: mean survival time, dose: 200.0 mg/kg/injection, schedule: Q01DX001 (ip), vehicle: saline with Tween-80) 106 % of control; under setting [3], 100 % of control; under setting [4], 101 % of control. Moreover, the T/C is 106 % of control (endpoint: mean survival time, dose: 400.0 mg/kg/injection, schedule: Q01DX001 (ip), vehicle: saline with Tween-80); 90 % of control under setting [5]; 100 % of control under setting [6].
